From patent publication US20060069039A1, “Treatment of dyskinesia” (priority 2002, published 2006)
Structures can show the parent of a compound that is named as a salt.

Assays:
[1] = tested on: MPTP-lesioned marmosets; assay: L-DOPA-induced dyskinesia and parkinsonian disability in the MPTP-lesioned marmoset model of Parkinson's disease; assay type: in vivo, marmosets (Callithrix jacchuis); conditions: topiramate oral plus L-DOPA 15 mg/kg, n=6
Description: The MPTP-lesioned primate represents the best animal model of Parkinson's disease and L-DOPA-induced dyskinesia, the most common form of dyskinesia encountered in the clinical situation. The pathology, symptomatology and response of symptoms to treatments and production of side effects following treatment are very similar in the MPTP-lesioned primate to those seen in Parkinson's disease patients. Thus, when untreated, MPTP-lesioned primates show parkinsonian symptoms such as reduced range of movement, reduced speed of movement (bradykinesia) and an abnormal, hunched, parkinsonian posture. […] A study was performed on six adult marmosets (Callithrix jacchuis) to assess the ability of topiramate to reduce dyskinesia, specifically L-DOPA-induced dyskinesia. The marmosets were rendered parkinsonian by subcutaneous injection of 2 mg/kg MPTP for 5 consecutive days. […] The degree of activity and disability before and after MPTP treatment were assessed using a combination of scales that measure locomotor activity, mobility, bradykinesia and posture (see below). […] Behavior was assessed for 6 hours post drug administration. […] Data were collected for each one hour time period for severity of dyskinesia and were analyzed with a Wilcoxon matched pairs test (the software used was Prism version 3.0, GraphPad Software Inc). […]

[2] = cited from earlier work
[3] = tested on: essential tremor; conditions: clinical trial; cited from earlier work

Compound | dyskinesia following topiramate and L-DOPA in comparison to L-DOPA alone ([1]; Wilcoxon P<0.05 at 0-1 h and 1-2 h, P>0.05 at 2-3 h) | effect on the anti-Parkinsonian action of L-DOPA (parkinsonian disability) ([1]; Wilcoxon P>0.05) | solubility in alkaline solutions ([2]; alkaline solutions containing sodium hydroxide or sodium phosphate, pH of 9 to 10) | solubility in acetone, chloroform, dimethylsulfoxide and ethanol ([2]; organic solvents) | pH of saturated solution ([2]; saturated solution) | mean improvement in tremor [3] [%] | solubility in water ([2]; water)
CC1(C)O[C@@H]2[C@@H](CO[C@@]3(COS(N)(=O)=O)OC(C)(C)O[C@@H]23)O1 [Topiramate, 2,3:4,5-bis-O-(1-methylethylidene)-β-D-fructopyranose sulfamate] | less dyskinesia | without major effect | most soluble | freely soluble | 6.3 | 25 | –
CCN(CC)CCNC(=O)c1cc(Cl)c(N)cc1OC [Metoclopramide hydrochloride, 4-amino-5-chloro-N-[2-(diethylamino)ethyl]-2-methoxy benzamide monohydrochloride monohydrate] | – | – | – | – | – | – | freely soluble
